Test results published in patent US20080146509A1, “COMPOSITIONS FOR DELIVERING PARATHYROID HORMONE AND CALCITONIN” (EMISPHERE TECHNOLOGIES, INC., priority 2002, published 2008).

Test: Mean peak blood calcitonin concentration (Cmax) of sCT after oral capsule dosing of monkeys
Format: in vivo, cynomolgous monkeys
From the text: 5-CNAC disodium salt ethanol solvate was screened through a 35 mesh Tyler standard sieve. 13.54 g of this material was weighed out and kept in a weighing boat. 0.028 g of parathyroid hormone (PTH) and 0.025 g of salmon calcitonin (sCT) were separately weighed out and kept in separate weighing boats. An amount of the previously weighed 5-CNAC disodium salt ethanol solvate approximately equivalent in volume to the total volume of PTH (i.e. a geometric amount) was prescreened through the same 35 mesh Tyler standard sieve on to clean paper. All the PTH was then screened through the same sieve onto the same paper. An amount of the screened 5-CNAC disodium salt ethanol solvate equivalent in volume to the total amount of material on the paper was screened through the same sieve. This was followed by screening the sCT through the same sieve on to the paper. A geometric amount of the 5-CNAC disodium salt ethanol solvate was then screened through the same sieve onto the paper. The materials on the paper were then transferred to a glass mortar and mixed by light trituration with a pestle. The remainder of the 5-CNAC disodium salt ethanol solvate was screened through the same 35 mesh Tyler standard sieve. […]
Four cynomolgous monkeys were dosed via a feeding tube two capsules each followed by 10 ml water. The mean peak blood calcitonin concentration, Cmax, of sCT was then measured.

mean peak blood concentration of sCT relative to that found when dosing capsules of 5-CNAC and sCT in rhesus monkeys (capsules of 5-CNAC disodium salt ethanol solvate, PTH and sCT in cynomolgous monkeys vs capsules of 5-CNAC and sCT in rhesus monkeys): about four
Cmax (monkey, blood, oral, cynomolgous monkeys, via feeding tube two capsules each (per capsule approx. 226.28 mg 5-CNAC disodium salt ethanol solvate, 0.461 mg PTH, 0.411 mg sCT) followed by 10 ml water): 2 to 2.5 ng/mL
Structure (SMILES): CC(C)C[C@H](NC(=O)[C@H](CCCCN)NC(=O)CNC(=O)[C@H](CC(C)C)NC(=O)[C@@H](NC(=O)[C@@H]1CSSC[C@H](N)C(=O)N[C@@H](CO)C(=O)N[C@@H](CC(N)=O)C(=O)N[C@@H](CC(C)C)C(=O)N[C@@H](CO)C(=O)N[C@@H]([C@@H](C)O)C(=O)N1)C(C)C)C(=O)N[C@@H](CO)C(=O)N[C@@H](CCC(N)=O)C(=O)N[C@@H](CCC(=O)O)C(=O)N[C@@H](CC(C)C)C(=O)N[C@@H](Cc1c[nH]cn1)C(=O)N[C@@H](CCCCN)C(=O)N[C@@H](CC(C)C)C(=O)N[C@@H](CCC(N)=O)C(=O)N[C@H](C(=O)N[C@@H](Cc1ccc(O)cc1)C(=O)N1CCC[C@H]1C(=O)N[C@@H](CCCNC(=N)N)C(=O)N[C@H](C(=O)N[C@@H](CC(N)=O)C(=O)N[C@H](C(=O)NCC(=O)N[C@@H](CO)C(=O)NCC(=O)N[C@H](C(=O)N1CCC[C@H]1C(N)=O)[C@@H](C)O)[C@@H](C)O)[C@@H](C)O)[C@@H](C)O [sCT, salmon calcitonin]
